Data set [1] can be described thus: Heat stress stability at 70° C. for three days, HPLC with ELSD detection. The class given is physicochemical. As for the experimental part: Samples of amorphous squalamine dilactate and squalamine dilactate recrystallized from ethanol as described in Example 5 were placed in scintillation vials and heated in an oven at 70° C. for three days. A portion of each heat stressed sample was then analyzed by HPLC with ELSD detection and the results compared with the HPLC analysis of unstressed material.

Another data set deals with tails of CD-1®BR mice. Kind of data set: Local irritancy of 5-day repeated intravenous injections of squalamine salt forms in mice. The class given is in vivo. An excerpt:
A Study of Local Irritancy of 5-Day Repeated Intravenous Injections of Different Salt Forms (Ditrifluoroacetate, Dilactate, Digluconate, Diacetate) of MSI-1256 (Squalamine) in Mice
Objective: To determine the local irritancy of 5-day repeated daily intravenous doses of squalamine salt forms in tails of CD-1®BR mice.
Material and Methods: (Animals): Forty-eight male CD-1®BR mice (Charles River Lab). Mean body weight at study initiation was 20.6 gm. (Housing Environment): Mice were housed as groups (maximum 10 mice/box) in plastic mouse boxes with hardwood chip bedding and wire lids. They had access to food (Purina Mouse Chow) and water in bottles ad lib. The boxes were housed in isolator racks that were supplied with one-pass through filtered room air. The room in which the animals were housed was on a 12-hour on/12-hour off light cycle and had controlled temperature (range: 67-76° F.) and humidity (range: 40-70% relative humidity).
Solution prep: A 0.36 mg/mL solution of squalamine ditrifluoroacetate salt (equivalent to 0.25 mg/mL squalamine ditrifluroacetate active moiety) was prepared in D5W. A 0.31 mg/mL solution of squalamine diacetate salt (equivalent to 0.25 mg/mL squalamine diacetate active moiety) was prepared in D5W. A 0.33 mg/mL solution of squalamine dilactate salt (equivalent to 0.25 mg/mL squalamine dilactate active moiety) was prepared in D5W. A 0.45 mg/mL solution of squalamine digluconate salt (equivalent to 0.25 mg/mL squalamine digluconate active moiety) was prepared in D5W. A 1.0 mg/mL solution of magainin-2-amide (positive control) was prepared in D5W. Protocol: Mice were randomly assigned to six groups (8 mice/group) and received daily intravenous (i.v.) injections of solutions of D5W or squalamine salts in the tail vein for five days (study days 0, 1, 2, 3, and 4). […] One group of eight mice received test article magainin-2-amide (10 mg/kg/day; 10 mL/kg/day of a 1 mg/mL solution), which was previously determined to be local vein irritant, as a positive control. Mice were not injected with test article if severity of bruising or swelling (edema) warranted the omission of the injection. Survival was monitored and clinical signs were observed daily for five days of administration of squalamine salts and four days after the last dose (Study Day 8). Clinical signs of irritancy, edema, and bruising were made on days 1, 2, 3, and 4 approximately 24-hours after each injection and immediately prior to that day's injection. The pHs of the solutions of all test articles except magainin-2-amide were checked on Study Day 3. (The same solutions were used throughout the study so a similar pH on all study days may be assumed).

A short description of data set [2]: Accelerated stability study (temperature-based, four weeks) of four salt forms, reversed-phase HPLC of o-phthaldialdehyde derivatized samples. Format: physicochemical. As for the experimental part: An accelerated stability study (temperature-based) lasting four weeks was performed on squalamine in four different salt forms. The four salt forms were: dihydrochloride, diacetate, dilactate and D-digluconate. The samples were subjected to temperatures of 40° C., 60° C. and 80° C. The following table summarizes the results of % purity of main peak, squalamine, based on total integrated area. The analysis was performed using reversed-phase HPLC of o-phthaldialdehyde derivatized samples.

[3] abbreviates: Heat Stressed, 70° C. for three days.

In the case of `CC(C)[C@@H](CC[C@@H](C)[C@H]1CC[C@H]2[C@@H]3[C@H](O)C[C@H]4C[C@@H](NCCCNCCCCN)CC[C@]4(C)[C@H]3CC[C@]12C)OS(=O)(=O)O.C[C@H](O)C(=O)O.C[C@H](O)C(=O)O` [Crystallized Squalamine], the “change in the percentage of the lactylamide impurity when heat stressed” value in data set [1] (70° C. for three days vs unstressed) was “no significant increase”. Moreover, in data set [1] (setting [3]), the “24 S Isomer” value was determined as 0.714%, the Lacrylamide is listed as 0.087% and the Squalamine amounted to 99.168%. Moreover, in data set [1] (Unstressed), the “24 S Isomer” value is 0.715%, the Lacrylamide was 0.070% and the Squalamine is 99.187%.
Consider squalamine diacetate, for which, in the data set with tails of CD-1®BR mice (mouse, in vivo), the “necrotic mouse tail (mice affected/group)” value was 1/8. In addition, the “% purity of main peak, squalamine, based on total integrated area” value (from here on “% purity of main peak, squalamine, based”) in data set [2] (4w 40° C.) was found to be 87.3%; in data set [2] (4w 60° C.) it was 81.5%; in data set [2] (4w 80° C.), 62.9%; in data set [2] (T = 0) it was 94.4%.
For squalamine digluconate, the “tolerance of treatment (swelling, bruising, irritation of tails)” value in the data set on tails of CD-1®BR mice (2.5 mg/kg/day i.v. tail vein for five days, 0.25 mg/mL solutions in D5W, compared with squalamine diacetate and ditrifluoroacetate) is “tolerated slightly better”. Besides, the “% purity of main peak, squalamine, based” value in data set [2] (4w 40° C.) turned out to be 72.6%; in data set [2] (4w 60° C.), 60.7%; in data set [2] (4w 80° C.) it was 4.9%; in data set [2] (T = 0), 87.8%.
For the molecule squalamine dilactate, the “% purity of main peak, squalamine, based” value amounted to 80.9% in data set [2] (4w 40° C.), 80.6% in data set [2] (4w 60° C.), 70.9% in data set [2] (4w 80° C.) and 91.8% in data set [2] (T = 0). Further, in data set [2] (four weeks at 40-80° C., compared to the diacetate and digluconate salts), the “stability under increasingly severe conditions” value is on record as “surprisingly stable”.
Regarding squalamine ditrifluoroacetate, in the data set on tails of CD-1®BR mice (mouse, in vivo), the “mouse tail fell off (mice affected/group)” value is 1/8 and the “necrotic mouse tail (mice affected/group)” value is on record as 1/8.

Source of the values: patent publication US7981876B2, “Polymorphic and amorphous salt forms of squalamine dilactate” (priority 2005, dated 2011).
